Experimental data published in patent US9115116B2, “Dual action inhibitors against histone deacetylases and 3-hydroxy-3-methylglutaryl coenzyme a reductase” (Academia Sinica, priority 2013, dated 2015).
Where two headings read alike, the source gives them in different places.

Assays:
[1] = system: acetylation of histone H3 in A549 lung cancer cells; assay: Western blot analysis of histone acetylation in A549 cells; format: cell-based, human; settings: SAHA at 5 μM
Experimental: (§1) After treated with test compounds (i.e., compounds of example 1), cells were lysed on ice, and cell lysates were collected and subjected to SDS-PAGE. Immunoblotting was performed using specific antibodies to evaluate the expression of proteins.
(§2) The intracellular histone acetylation status is a direct indicator for class I HDAC inhibition, whereas α-tubulin is the substrate of class II HDAC (i.e., HDAC 6).

[2] = system: acetylation of α-tubulin in A549 cells; assay: Western blot analysis of tubulin acetylation in A549 cells; format: cell-based, human; settings: SAHA at 5 μM
Experimental: as §1, §2

[3] = target: HDAC2 (Homo sapiens (Human), UniProt Q92769); assay: HDAC fluorescent activity assay (HDAC2); format: biochemical
[4] = target: HDAC1 (Homo sapiens (Human), UniProt Q13547); assay: HDAC fluorescent activity assay (HDAC1); format: biochemical
Experimental: (§3) The HDAC activity was performed using the HDAC fluorescent activity assay kit (BIOMOL, Plymouth Meeting, Pa., USA) according to the manufacturer's instructions. Briefly, recombinant proteins of HDAC1 or HDAC6 were incubated with test compounds, and HDAC reaction was initiated by addition of Fluor-de-Lys substrate. Samples were incubated for 10 min at room temperature, followed by adding developer to stop the reaction. Fluorescence was measured by fluorometric reader with excitation at 360 nm and emission at 460 nm. The HDAC activity was expressed as arbitrary fluorescence units (AFU). […] The half maximal inhibitory concentration (IC50) values for the test compounds were calculated from software SigmaPlot.

[5] = target: HDAC6 (Homo sapiens (Human), UniProt Q9UBN7); assay: HDAC fluorescent activity assay (HDAC6); format: biochemical; settings: mean ± SD of three experiments
Experimental: as §3

[6] = target: HMGR (Homo sapiens (Human), UniProt P04035); assay: HMG-CoA reductase (HMGR) activity assay, recombinant protein; format: biochemical; settings: for IC50: mean ± SD of three experiments
Description: HMG-CoA Reductase (HMGR) Activity Assay.

[7] = target: HMGR activity in A549 lung cancer cells (Homo sapiens (Human), UniProt P04035); assay: HMGR activity in whole cell lysates of treated A549 lung cancer cells; settings: 1-50 μM, 24 h
Chain of HMGR activity in A549 lung cancer cells (P04035 whole entry): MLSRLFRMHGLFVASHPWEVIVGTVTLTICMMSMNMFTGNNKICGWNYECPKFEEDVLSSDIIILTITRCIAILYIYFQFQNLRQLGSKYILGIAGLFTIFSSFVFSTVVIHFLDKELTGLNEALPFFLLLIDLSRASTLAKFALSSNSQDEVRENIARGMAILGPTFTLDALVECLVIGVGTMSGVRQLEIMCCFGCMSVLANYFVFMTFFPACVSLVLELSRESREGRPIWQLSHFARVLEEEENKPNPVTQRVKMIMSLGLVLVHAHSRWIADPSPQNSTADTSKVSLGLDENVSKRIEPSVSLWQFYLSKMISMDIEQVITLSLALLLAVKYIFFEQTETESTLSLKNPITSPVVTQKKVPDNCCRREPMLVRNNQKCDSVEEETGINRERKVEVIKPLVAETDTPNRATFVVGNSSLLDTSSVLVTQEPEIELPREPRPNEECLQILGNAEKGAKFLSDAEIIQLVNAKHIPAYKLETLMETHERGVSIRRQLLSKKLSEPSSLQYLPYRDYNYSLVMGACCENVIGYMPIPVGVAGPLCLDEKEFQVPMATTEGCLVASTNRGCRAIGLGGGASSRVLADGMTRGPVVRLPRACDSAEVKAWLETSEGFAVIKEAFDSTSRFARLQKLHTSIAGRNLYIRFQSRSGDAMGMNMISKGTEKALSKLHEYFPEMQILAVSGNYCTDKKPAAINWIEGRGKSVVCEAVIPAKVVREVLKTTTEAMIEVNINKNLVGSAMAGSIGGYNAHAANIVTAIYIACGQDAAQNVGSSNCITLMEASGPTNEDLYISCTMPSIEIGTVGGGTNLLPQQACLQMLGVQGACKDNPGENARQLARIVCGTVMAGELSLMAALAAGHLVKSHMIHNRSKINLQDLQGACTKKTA
Experimental: A549 cells were cultured in Dulbecco's modified Eagle's medium (DMEM) in a humidified incubator containing 5% CO2/95% air.
The HMGR activity was performed using HMG-CoA reductase assay kit from Sigma-Aldrich with the human recombinant protein or 100 μg total cell lysates from A549 cells. […] HMGR activity under defined assay conditions, containing NADPH and HMG-CoA substrate in a final volume of 0.2 mL of 100 mM potassium phosphatate buffer (120 mM KCI, 1 mM EDTA, 5 mM DTT, pH 7.4), were initiated in the presence or absence (control) of test compounds dissolved in dimethylsulfoxide (DMSO). The rates of NADPH consumption were monitored every 20 seconds, for up to 10 minutes, by spectrophotometer at 37° C. and 340 nm. The HMGR activity was calculated as a percentage of activity compared with the control group at 5 min. The IC50 values were calculated from software SigmaPlot.

Chain of HMGR (P04035 426-888 limits assumed): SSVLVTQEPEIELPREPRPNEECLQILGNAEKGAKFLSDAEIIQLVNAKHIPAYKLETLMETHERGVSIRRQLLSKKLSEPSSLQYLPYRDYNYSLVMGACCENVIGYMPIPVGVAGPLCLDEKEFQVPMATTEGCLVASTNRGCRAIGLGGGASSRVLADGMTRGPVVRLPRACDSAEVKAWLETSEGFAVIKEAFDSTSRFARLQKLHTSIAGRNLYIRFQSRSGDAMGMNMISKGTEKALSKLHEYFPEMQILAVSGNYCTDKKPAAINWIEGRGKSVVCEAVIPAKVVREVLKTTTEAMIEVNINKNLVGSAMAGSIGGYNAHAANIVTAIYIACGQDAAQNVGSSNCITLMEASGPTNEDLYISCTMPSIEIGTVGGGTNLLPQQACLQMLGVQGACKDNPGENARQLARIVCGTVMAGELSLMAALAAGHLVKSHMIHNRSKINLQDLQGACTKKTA
Chain of HDAC2 (Q92769 whole entry, species assumed): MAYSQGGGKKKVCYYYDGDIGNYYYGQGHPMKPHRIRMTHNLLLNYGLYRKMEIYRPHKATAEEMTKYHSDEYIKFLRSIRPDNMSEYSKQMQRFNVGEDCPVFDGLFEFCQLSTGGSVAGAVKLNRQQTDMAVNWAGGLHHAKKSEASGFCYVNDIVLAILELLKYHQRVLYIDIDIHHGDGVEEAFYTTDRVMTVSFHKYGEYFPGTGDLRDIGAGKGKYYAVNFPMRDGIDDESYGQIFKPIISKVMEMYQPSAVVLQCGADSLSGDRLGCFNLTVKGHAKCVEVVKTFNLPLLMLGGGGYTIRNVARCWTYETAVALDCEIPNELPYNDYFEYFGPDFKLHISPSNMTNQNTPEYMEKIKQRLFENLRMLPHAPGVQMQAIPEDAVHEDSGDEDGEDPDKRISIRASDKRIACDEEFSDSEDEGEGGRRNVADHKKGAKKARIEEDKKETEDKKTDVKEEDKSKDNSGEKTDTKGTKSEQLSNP
Chain of HDAC6 (Q9UBN7 whole entry, species assumed): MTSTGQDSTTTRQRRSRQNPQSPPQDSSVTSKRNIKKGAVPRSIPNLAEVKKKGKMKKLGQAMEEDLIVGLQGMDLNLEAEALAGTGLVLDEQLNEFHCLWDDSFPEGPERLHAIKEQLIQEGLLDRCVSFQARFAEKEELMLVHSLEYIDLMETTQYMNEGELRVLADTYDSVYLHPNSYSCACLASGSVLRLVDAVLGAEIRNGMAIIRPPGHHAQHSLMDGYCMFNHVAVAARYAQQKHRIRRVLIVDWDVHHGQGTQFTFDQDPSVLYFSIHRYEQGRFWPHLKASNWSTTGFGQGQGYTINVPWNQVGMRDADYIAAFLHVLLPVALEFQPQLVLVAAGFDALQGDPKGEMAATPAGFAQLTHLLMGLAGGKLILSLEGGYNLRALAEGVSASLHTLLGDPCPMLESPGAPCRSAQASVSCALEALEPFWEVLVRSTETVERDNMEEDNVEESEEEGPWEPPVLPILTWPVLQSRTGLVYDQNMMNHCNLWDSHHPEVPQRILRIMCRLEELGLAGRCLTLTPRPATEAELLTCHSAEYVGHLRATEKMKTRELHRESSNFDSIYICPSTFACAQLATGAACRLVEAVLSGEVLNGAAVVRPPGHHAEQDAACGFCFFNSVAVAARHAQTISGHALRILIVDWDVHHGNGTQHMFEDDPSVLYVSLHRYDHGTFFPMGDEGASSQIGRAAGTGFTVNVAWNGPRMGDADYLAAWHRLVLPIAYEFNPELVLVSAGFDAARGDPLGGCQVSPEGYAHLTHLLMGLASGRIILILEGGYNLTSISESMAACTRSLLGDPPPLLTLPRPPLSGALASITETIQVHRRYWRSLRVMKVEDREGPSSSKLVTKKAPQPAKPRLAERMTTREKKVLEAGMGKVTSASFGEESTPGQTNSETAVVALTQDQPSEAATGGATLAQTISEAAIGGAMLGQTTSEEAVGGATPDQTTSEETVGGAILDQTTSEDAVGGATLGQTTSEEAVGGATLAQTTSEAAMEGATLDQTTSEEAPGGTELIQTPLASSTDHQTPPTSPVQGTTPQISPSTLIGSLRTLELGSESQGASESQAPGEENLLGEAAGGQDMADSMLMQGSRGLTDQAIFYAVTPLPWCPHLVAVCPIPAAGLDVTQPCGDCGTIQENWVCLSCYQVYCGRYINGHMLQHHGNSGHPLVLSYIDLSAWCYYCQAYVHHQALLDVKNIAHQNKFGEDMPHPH
Chain of HDAC1 (Q13547 whole entry, species assumed): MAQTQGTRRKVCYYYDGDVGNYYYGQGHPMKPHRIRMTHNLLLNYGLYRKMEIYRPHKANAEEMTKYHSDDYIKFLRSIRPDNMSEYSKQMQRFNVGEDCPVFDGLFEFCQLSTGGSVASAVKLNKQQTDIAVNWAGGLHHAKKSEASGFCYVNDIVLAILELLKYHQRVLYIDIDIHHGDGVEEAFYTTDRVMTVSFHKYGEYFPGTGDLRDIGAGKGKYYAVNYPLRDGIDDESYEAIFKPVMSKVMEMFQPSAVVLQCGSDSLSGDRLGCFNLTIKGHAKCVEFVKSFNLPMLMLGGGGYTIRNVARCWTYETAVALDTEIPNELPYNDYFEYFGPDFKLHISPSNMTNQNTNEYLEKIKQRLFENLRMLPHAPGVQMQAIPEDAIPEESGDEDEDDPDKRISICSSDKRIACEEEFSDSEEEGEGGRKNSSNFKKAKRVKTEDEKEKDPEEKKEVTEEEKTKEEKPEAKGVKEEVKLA

How did the “histone acetylation (Western blot)” value [1] turn out when `CC[C@H](C)C(=O)O[C@H]1C[C@@H](C)C=C2C=C[C@H](C)[C@H](CC[C@@H]3C[C@@H](O)CC(=O)O3)[C@H]21` [lovastatin, reference compound] was run?
Its value is “no effect”.

And the “tubulin acetylation (Western blot)” value [2]?
Its value is “no effect”.

`C#Cc1ccc(CNC(=O)O[C@H]2C[C@@H](C)C=C3C=C[C@H](C)[C@H](CC[C@@H]4C[C@@H](O[Si](C)(C)C(C)(C)C)CC(=O)O4)[C@H]32)cc1` [6b, (4R,6R)-6-(2-{(1S,2S,6R,8S,8aR)-8-[(4-Ethynylbenzyl)carbamoyloxy]-2,6-dimethyl-1,2,6,7,8,8a-hexahydronaphthyl}ethyl)-4-tert-butyldimethylsilyloxy-3,4,5,6-tetrahydro-2H-pyran-2-one] was tested. Which IC50 ([3]; mean ± SD of three experiments) did it give?
The IC50 was 882 ± 9.7 nM.

What about the IC50 ([4]; mean ± SD of three experiments) of the same molecule?
Its IC50 is 125 ± 6.3 nM.

And the IC50 [5]?
Its IC50 is 34 ± 4.3 nM.

And the IC50 [6]?
The IC50 was 53.8 ± 5.2 nM.

What does the source list for `C[C@H]1C=C2C=C[C@H](C)[C@H](CC[C@@H]3C[C@@H](O[Si](C)(C)C(C)(C)C)CC(=O)O3)[C@H]2[C@@H](OC(=O)NCc2ccc(-c3cn(CCCCCCC(=O)NO)nn3)cc2)C1` [8b, (4R,6R)-6-(2-{(1S,2S,6R,8S,8aR)-8-[(4-{1-[7-(Hydroxyamino)-7-oxoheptyl]-1H-1,2,3-triazol-4-yl}benzyl)carbamoyloxy]-2,6-dimethyl-1,2,6,7,8,8a-hexahydronaphthyl}ethyl)-4-tert-butyldimethylsilyloxy-3,4,5,6-tetrahydro-2H-pyran-2-one]?
IC50 [3]: 882 ± 9.7 nM; IC50 [4]: 125 ± 6.3 nM; IC50 [5]: 34 ± 4.3 nM; histone acetylation (Western blot) [1]: promoted histone and tubulin acetylation in a dose dependent manner; tubulin acetylation (Western blot) [2]: promoted histone and tubulin acetylation in a dose dependent manner

`C[C@H]1C=C2C=C[C@H](C)[C@H](CC[C@@H]3C[C@@H](O[Si](C)(C)C(C)(C)C)CC(=O)O3)[C@H]2[C@@H](OC(=O)NCCCCCCC(=O)NO)C1` [12a, (4R,6R)-6-[2-((1S,2S,6R,8S,8aR)-8-{[7-(Hydroxyamino)-7-oxoheptyl]carbamoyloxy}-2,6-dimethyl-1,2,6,7,8,8a-hexahydronaphthyl)ethyl]-4-tert-butyldimethylsilyloxy-3,4,5,6-tetrahydro-2H-pyran-2-one] was tested. Which IC50 ([3]; mean ± SD of three experiments) did it give?
Its IC50 is 658 ± 21.1 nM.

What about the IC50 ([4]; mean ± SD of three experiments) of the same molecule?
Its IC50 is 122 ± 12.7 nM.

What about the IC50 [5] of the same molecule?
Its IC50 is 140 ± 5.7 nM.

`C[C@H]1C=C2C=C[C@H](C)[C@H](CC[C@@H]3C[C@@H](O[Si](C)(C)C(C)(C)C)CC(=O)O3)[C@H]2[C@@H](OC(=O)Nc2ccc(-c3cn(CCCCCCC(=O)NO)nn3)cc2)C1` [8a, (4R,6R)-6-(2-{(1S,2S,6R,8S,8aR)-8-[(4-{1-[7-(Hydroxyamino)-7-oxoheptyl]-1H-1,2,3-triazol-4-yl}phenyl)carbamoyloxy]-2,6-dimethyl-1,2,6,7,8,8a-hexahydronaphthyl}ethyl)-4-tert-butyldimethylsilyloxy-3,4,5,6-tetrahydro-2H-pyran-2-one] was tested. Which IC50 [3] did it give?
The IC50 was 463 ± 28 nM.

What about the IC50 [4] of the same molecule?
The IC50 was 159 ± 8.4 nM.

What about the IC50 [5] of the same molecule?
Its IC50 is 127 ± 21.5 nM.

What about the “histone acetylation (Western blot)” value [1] of the same molecule?
The value was “promoted histone and tubulin acetylation in a dose dependent manner”.

What about the “tubulin acetylation (Western blot)” value [2] of the same molecule?
Its value is “promoted histone and tubulin acetylation in a dose dependent manner”.

How did the IC50 [3] turn out when `C#Cc1ccc(NC(=O)O[C@H]2C[C@@H](C)C=C3C=C[C@H](C)[C@H](CC[C@@H]4C[C@@H](O[Si](C)(C)C(C)(C)C)CC(=O)O4)[C@H]32)cc1` [6a, (4R,6R)-6-(2-{(1 S,2S,6R,8S,8aR)-8-[(4-ethynylphenyl)carbamoyloxy]-2,6-dimethyl-1,2,6,7,8,8a-hexahydronaphthyl}ethyl)-4-tert-butyldimethylsilyloxy-3,4,5,6-tetrahydro-2H-pyran-2-one] was run?
Its IC50 is 463 ± 28 nM.

And the IC50 [4]?
Its IC50 is 159 ± 8.4 nM.

What about the IC50 [5] of the same molecule?
The IC50 was 127 ± 21.5 nM.

What about the IC50 [6] of the same molecule?
Its IC50 is 36.5 ± 5.3 nM.

`O=C(CCCCCCC(=O)Nc1ccccc1)NO` [SAHA, suberanilohydroxamic acid, reference compound] was tested. Which “inhibition of HMGR activity (in words)” value ([6]; enzyme assay, any dose) did it give?
Its value is “no inhibition on HMGR activity at any dose”.

What about the “histone acetylation (Western blot)” value [1] of the same molecule?
Its value is “markedly induced”.

And the “tubulin acetylation (Western blot)” value [2]?
The value was “markedly induced”.

What about the “reduction of HMGR activity in whole cell lysates (in words)” value [7] of the same molecule?
Its value is “failed to inhibit HMGR at any dose”.
